For 15 compounds, GI50 results are on record in patent publication US20240228458A1, “PYRIMIDINE DERIVATIVE HAVING PROTEIN KINASE INHIBITORY ACTIVITY, AND THERAPEUTIC PHARMACEUTICAL COMPOSITION COMPRISING SAME” (THERAPEX CO., LTD., priority 2021, published 2024).

Structures are written as SMILES.

What all share (assay type): cell-based
The test system of assay [1] is Ba/F3 cells expressing EGFR-wt. Kind of assay: Growth inhibition (GI50) of Ba/F3 cells expressing EGFR-wt, Celltiter glo. The following applies: Mus musculus, BaF3, 72 h. The essentials:
(§1)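 Ba/F3 cells carrying the given EGFR variant were seeded at 100,000 cells/ml and, 4 h later, treated with 10-point, 4-fold serial dilutions prepared from a 2 mM stock (0.5% DMSO final). After 72 h at 37 °C and 5% CO2, viable cells were quantified by CellTiter-Glo luminescence to derive GI50.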

A further assay deals with parental Ba/F3 cell line. In words: Growth inhibition (GI50) of the parental Ba/F3 cell line (not introduced with EGFR variants), Celltiter glo. As to conditions: Mus musculus, BaF3, 72 h, parental Ba/F3 cells. The gist of the method: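 Parental Ba/F3 cells (100,000 cells/ml) were treated with 10-point, 4-fold compound dilutions (0.5% DMSO; top stock 2 mM) for 72 h at 37 °C, 5% CO2. Viability was read by CellTiter-Glo; GI50 is the concentration (μM) giving 50% growth inhibition.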
A general note: In ATP-based viability assays light output follows the ATP content of the culture.

Assay [2] deals with Ba/F3 cells expressing del19/T790M (EGFR-DT). Kind of assay: Growth inhibition (GI50) of Ba/F3 cells expressing del19/T790M (EGFR-DT), Celltiter glo. The following applies: Mus musculus, BaF3, 72 h. The essentials: as §1
Assay [3] deals with Ba/F3 cells expressing L858R/T790M (EGFR-LT). In words: Growth inhibition (GI50) of Ba/F3 cells expressing L858R/T790M (EGFR-LT), Celltiter glo. As to conditions: Mus musculus, BaF3, 72 h. The gist of the method: as §1
Assay [4] concerns Ba/F3 cells expressing L858R/T790M/C797S (EGFR-LTC). In words: Growth inhibition (GI50) of Ba/F3 cells expressing L858R/T790M/C797S (EGFR-LTC), Celltiter glo. The following applies: Mus musculus, BaF3, 72 h. The gist of the method: as §1
The test system of assay [5] is Ba/F3 cells expressing del19/T790M/C797S (EGFR-DTC). In words: Growth inhibition (GI50) of Ba/F3 cells expressing del19/T790M/C797S (EGFR-DTC), Celltiter glo. The following applies: Mus musculus, BaF3, 72 h. The gist of the method:
as §1

As for `COc1cc(N2CCC(N3CCN(C)CC3)CC2)c(Cl)cc1Nc1ncc(Cl)c(Nc2cc3c(cc2NS(C)(=O)=O)CCO3)n1` [Example 168, N-(6-((5-chloro-2-((5-chloro-2-methoxy-4-(4-(4-methylpiperazin-1-yl)piperidin-1-yl)phenyl)amino)pyrimidin-4-yl)amino)-2,3-dihydrobenzofuran-5-yl)methanesulfonamide], the 50% growth inhibitory concentration (GI50) (usually the concentration that inhibits growth by half) fell in the range of 25 to 100 nM in assay [1]; 2000 to 10000 nM with parental Ba/F3 cell line; 1 to 25 nM in assay [2]; 1 to 25 nM in assay [3]; 1 to 25 nM in assay [4]; 1 to 25 nM in assay [5].

`COc1cc(N2CCC(N3CCN(C)CC3)CC2)c(C)cc1Nc1ncc(Br)c(Nc2cc(Cl)ccc2NS(C)(=O)=O)n1` [Example 85]: the GI50 lay in the range of 100 to 500 nM in assay [1]; 500 to 2000 nM in the assay with parental Ba/F3 cell line; 1 to 25 nM in assay [2]; 1 to 25 nM in assay [3]; 1 to 25 nM in assay [4]; 1 to 25 nM in assay [5].

Turning to `COc1cc(N2CCC(N3CCCC(N(C)C)C3)CC2)c(C)cc1Nc1ncc(Cl)c(Nc2cc3c(cc2N(C)S(C)(=O)=O)CCO3)n1` (stereo not drawn) [Example 267, N-(6-((5-chloro-2-((4-(3-(dimethylamino)-[1,4′-bipiperidin]-1′-yl)-2-methoxy-5-methylphenyl)amino)pyrimidin-4-yl)amino)-2,3-dihydrobenzofuran-5-yl)-N-methylmethanesulfonamide], the GI50 was in the range of 500 to 2000 nM in assay [1]; 500 to 2000 nM in the assay on parental Ba/F3 cell line; 25 to 100 nM in assay [2]; 25 to 100 nM in assay [3]; 25 to 100 nM in assay [4]; 100 to 500 nM in assay [5].

As to `CN1CCN(C2CCN(c3ncc(Nc4ncc(Br)c(Nc5cc6c(cc5NS(C)(=O)=O)CCO6)n4)cc3F)CC2)CC1` [Example 239, N-(6-((5-bromo-2-((5-fluoro-6-(4-(4-methylpiperazin-1-yl)piperidin-1-yl)pyridin-3-yl)amino)pyrimidin-4-yl)amino)-2,3-dihydrobenzofuran-5-yl)methanesulfonamide], the GI50 in assay [1] is 500 to 2000 nM; with parental Ba/F3 cell line, 2000 to 10000 nM; in assay [2], 25 to 100 nM; in assay [3], 25 to 100 nM; in assay [4] it was 100 to 500 nM; in assay [5], 500 to 2000 nM.

As to `COc1cc(N2CCC(N3CCCC(N(C)C)C3)CC2)c(Cl)cc1Nc1ncc(Br)c(Nc2cc3c(cc2NS(C)(=O)=O)CCO3)n1` (stereo not drawn) [Example 216, N-(6-((5-bromo-2-((5-chloro-4-(3-(dimethylamino)-[1,4′-bipiperidin]-1′-yl)-2-methoxyphenyl)amino)pyrimidin-4-yl)amino)-2,3-dihydrobenzofuran-5-yl)methanesulfonamide], the 50% growth inhibitory concentration (GI50) lay in the range of 25 to 100 nM in assay [1]; 2000 to 10000 nM with parental Ba/F3 cell line; 1 to 25 nM in assay [2]; 1 to 25 nM in assay [3]; 25 to 100 nM in assay [4]; 1 to 25 nM in assay [5].

As for `Cc1cc(Nc2ncc(Cl)c(Nc3cc(Cl)c(F)cc3NS(C)(=O)=O)n2)c(Cl)cc1N1CCC(N2CCN(C)CC2)CC1` [Example 182, N-(4-chloro-2-((5-chloro-2-((2-chloro-5-methyl-4-(4-(4-methylpiperazin-1-yl)piperidin-1-yl)phenyl)amino)pyrimidin-4-yl)amino)-5-fluorophenyl)methanesulfonamide], the 50% growth inhibitory concentration (GI50) in assay [1] is 2000 to 10000 nM; in the assay with parental Ba/F3 cell line, more than 10000 nM; in assay [2], 25 to 100 nM; in assay [3], 25 to 100 nM; in assay [4], 25 to 100 nM; in assay [5] it was 25 to 100 nM.

Consider `COc1cc(N2CCC(N3CCNCC3)CC2)c(C)cc1Nc1ncc(Br)c(Nc2cc3c(cc2NS(C)(=O)=O)CCO3)n1` [Example 215, N-(6-((5-bromo-2-((2-methoxy-5-methyl-4-(4-(piperazin-1-yl)piperidin-1-yl)phenyl)amino)pyrimidin-4-yl)amino)-2,3-dihydrobenzofuran-5-yl)methanesulfonamide], for which the GI50 in assay [1] fell in the range of 100 to 500 nM; in the assay on parental Ba/F3 cell line it was 2000 to 10000 nM; in assay [2], 1 to 25 nM; in assay [3], 25 to 100 nM; in assay [4], 25 to 100 nM; in assay [5], 25 to 100 nM.

Consider `COc1cc(N2CCC(N3CCCC(N(C)C)C3)CC2)c(C)cc1Nc1ncc(Br)c(Nc2cc3c(cc2NS(C)(=O)=O)CCO3)n1` (stereo not drawn) [Example 196, N-(6-((5-bromo-2-((4-(3-(dimethylamino)-[1,4′-bipiperidin]-1′-yl)-2-methoxy-5-methylphenyl)amino)pyrimidin-4-yl)amino)-2,3-dihydrobenzofuran-5-yl)methanesulfonamide], for which the GI50 in assay [1] is 500 to 2000 nM; in the assay with parental Ba/F3 cell line it was 2000 to 10000 nM; in assay [2], 1 to 25 nM; in assay [3] it was 25 to 100 nM; in assay [4], 100 to 500 nM; in assay [5], 1 to 25 nM.

Turning to `COc1cc(N2CCC(N3CCN(C4CC4)CC3)CC2)c(C)cc1Nc1ncc(Br)c(Nc2cc3c(cc2N(C)S(C)(=O)=O)CCO3)n1` [Example 261, N-(6-((5-bromo-2-((4-(4-(4-cyclopropylpiperazin-1-yl)piperidin-1-yl)-2-methoxy-5-methylphenyl)amino)pyrimidin-4-yl)amino)-2,3-dihydrobenzofuran-5-yl)-N-methylmethanesulfonamide], the concentration for 50% growth inhibition (GI50) in assay [1] is 25 to 100 nM; in the assay on parental Ba/F3 cell line it was 2000 to 10000 nM; in assay [2], 1 to 25 nM; in assay [3], 25 to 100 nM; in assay [4], 25 to 100 nM; in assay [5], 100 to 500 nM.

Turning to `COc1nc(N2CCN(C(C)=O)CC2)ccc1Nc1ncc(Cl)c(Nc2ccc(F)cc2NS(C)(=O)=O)n1` [Example 19, N-(2-((2-((6-(4-acetylpiperazin-1-yl)-2-methoxypyridin-3-yl)amino)-5-chloropyrimidin-4-yl)amino)-5-fluorophenyl)methanesulfonamide], the GI50 in assay [1] lay within 500 to 2000 nM; in the assay with parental Ba/F3 cell line, 2000 to 10000 nM; in assay [2] it was 500 to 2000 nM; in assay [3], 500 to 2000 nM; in assay [4], 500 to 2000 nM; in assay [5], 500 to 2000 nM.

Regarding `COc1ccc(NS(C)(=O)=O)c(Nc2nc(Nc3cc(C)c(N4CCC(N5CCCC(N(C)C)C5)CC4)cc3OC)ncc2Cl)c1` (stereo not drawn) [Example 232, N-(2-((5-chloro-2-((4-(3-(dimethylamino)-[1,4′-bipiperidin]-1′-yl)-2-methoxy-5-methylphenyl)amino)pyrimidin-4-yl)amino)-4-methoxyphenyl)methanesulfonamide], the GI50 in assay [1] fell in the range of 500 to 2000 nM; in the assay on parental Ba/F3 cell line it was 2000 to 10000 nM; in assay [2] it was 25 to 100 nM; in assay [3], 100 to 500 nM; in assay [4], 100 to 500 nM; in assay [5], 25 to 100 nM.

Turning to `COc1cc(N2CCC(N3CCNCC3)CC2)c(C)cc1Nc1ncc(Cl)c(Nc2cc3c(cc2NS(C)(=O)=O)CCO3)n1` [Example 207, N-(6-((5-chloro-2-((2-methoxy-5-methyl-4-(4-(piperazin-1-yl)piperidin-1-yl)phenyl)amino)pyrimidin-4-yl)amino)-2,3-dihydrobenzofuran-5-yl)methanesulfonamide], the concentration for 50% growth inhibition (GI50) in assay [1] was 100 to 500 nM; in the assay with parental Ba/F3 cell line it was 2000 to 10000 nM; in assay [2] it was 25 to 100 nM; in assay [3] it was 1 to 25 nM; in assay [4] it was 25 to 100 nM; in assay [5] it was 25 to 100 nM.

Consider `COc1cc(N2CCC(N3CCN(C4CC4)CC3)CC2)c(C)cc1Nc1ncc(Cl)c(Nc2cc3c(cc2NS(C)(=O)=O)CCO3)n1` [Example 208, N-(6-((5-chloro-2-((4-(4-(4-cyclopropylpiperazin-1-yl)piperidin-1-yl)-2-methoxy-5-methylphenyl)amino)pyrimidin-4-yl)amino)-2,3-dihydrobenzofuran-5-yl)methanesulfonamide], for which the GI50 in assay [1] fell in the range of 100 to 500 nM; in the assay with parental Ba/F3 cell line, 2000 to 10000 nM; in assay [2], 1 to 25 nM; in assay [3], 1 to 25 nM; in assay [4], 25 to 100 nM; in assay [5], 1 to 25 nM.

In the case of `Cc1cc(Nc2ncc(Br)c(Nc3cc4c(cc3N(C)S(C)(=O)=O)CCO4)n2)c(Cl)cc1N1CCC(N2CCN(C)CC2)CC1` [Example 251, N-(6-((5-bromo-2-((2-chloro-5-methyl-4-(4-(4-methylpiperazin-1-yl)piperidin-1-yl)phenyl)amino)pyrimidin-4-yl)amino)-2,3-dihydrobenzofuran-5-yl)-N-methylmethanesulfonamide], the GI50 in assay [1] was in the range of 100 to 500 nM; in the assay on parental Ba/F3 cell line, 2000 to 10000 nM; in assay [2], 1 to 25 nM; in assay [3], 25 to 100 nM; in assay [4], 1 to 25 nM; in assay [5], 25 to 100 nM.

On to `Cc1cc(Nc2ncc(Br)c(Nc3cc(Cl)ccc3NS(C)(=O)=O)n2)c(Cl)cc1N1CCC(N2CCCC(N(C)C)C2)CC1` (stereo not drawn) [Example 98, N-(2-((5-bromo-2-((2-chloro-4-(3-(dimethylamino)-[1,4′-bipiperidin]-1′-yl)-5-methylphenyl)amino)pyrimidin-4-yl)amino)-4-chlorophenyl)methanesulfonamide], for which the GI50 lay within 100 to 500 nM in assay [1]; 500 to 2000 nM with parental Ba/F3 cell line; 25 to 100 nM in assay [2]; 100 to 500 nM in assay [3]; 25 to 100 nM in assay [4]; 25 to 100 nM in assay [5].
